Measured values taken from PMC7614683, “A small molecule PI3Kα activator for cardioprotection and neuroregeneration” (Nature, 2023).
Where two headings read alike, the source gives them in different places.

How the values were obtained:
Assay in all cases: SelectScreen Z-LYTE kinase activity assay (SI Table 6)
Assay type in all cases: biochemical
[1] = molecular target: protein kinases of the Z-LYTE panel (Homo sapiens, UniProt P06493)
How it was run: (§1)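 Kinases in the SelectScreen panel (Adapta, LanthaScreen binding, Z-LYTE formats) were tested against compound at 1 μM. Separately, ATM (100 nM, 5 μM GST-p53, 1 mM ATP, 30 min, 30°C) and mTORC1 (50 nM, 15 μM 4E-BP1, 250 μM ATP, 3 h) were run with 200 μM compound. Those products were read on Phos-tag gels.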

[2] = molecular target: protein kinases of the Z-LYTE panel (Homo sapiens, UniProt Q06187)
protein kinases of the Z-LYTE panel (Homo sapiens, UniProt Q06187), sequence (Q06187 whole entry): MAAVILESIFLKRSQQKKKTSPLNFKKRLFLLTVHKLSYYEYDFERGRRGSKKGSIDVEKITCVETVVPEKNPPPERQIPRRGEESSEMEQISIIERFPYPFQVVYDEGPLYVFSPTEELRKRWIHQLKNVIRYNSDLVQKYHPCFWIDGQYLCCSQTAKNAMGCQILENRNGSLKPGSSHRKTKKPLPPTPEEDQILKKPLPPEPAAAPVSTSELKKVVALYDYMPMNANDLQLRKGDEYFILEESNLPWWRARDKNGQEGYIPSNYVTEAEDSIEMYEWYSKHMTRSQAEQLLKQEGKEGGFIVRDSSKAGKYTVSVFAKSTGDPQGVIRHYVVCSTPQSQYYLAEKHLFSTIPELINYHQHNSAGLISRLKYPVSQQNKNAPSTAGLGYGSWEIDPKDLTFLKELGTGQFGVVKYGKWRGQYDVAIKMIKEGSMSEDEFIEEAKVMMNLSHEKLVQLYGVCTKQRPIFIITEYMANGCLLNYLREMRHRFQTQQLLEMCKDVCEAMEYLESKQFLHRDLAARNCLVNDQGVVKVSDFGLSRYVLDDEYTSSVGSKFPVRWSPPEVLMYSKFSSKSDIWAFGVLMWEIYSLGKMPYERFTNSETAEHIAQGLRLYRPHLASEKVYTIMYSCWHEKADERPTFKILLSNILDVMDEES
How it was run: as §1

[3] = molecular target: T1, protein kinases of the Z-LYTE panel (Homo sapiens, UniProt P36896)
T1 sequence (P36896 24-505): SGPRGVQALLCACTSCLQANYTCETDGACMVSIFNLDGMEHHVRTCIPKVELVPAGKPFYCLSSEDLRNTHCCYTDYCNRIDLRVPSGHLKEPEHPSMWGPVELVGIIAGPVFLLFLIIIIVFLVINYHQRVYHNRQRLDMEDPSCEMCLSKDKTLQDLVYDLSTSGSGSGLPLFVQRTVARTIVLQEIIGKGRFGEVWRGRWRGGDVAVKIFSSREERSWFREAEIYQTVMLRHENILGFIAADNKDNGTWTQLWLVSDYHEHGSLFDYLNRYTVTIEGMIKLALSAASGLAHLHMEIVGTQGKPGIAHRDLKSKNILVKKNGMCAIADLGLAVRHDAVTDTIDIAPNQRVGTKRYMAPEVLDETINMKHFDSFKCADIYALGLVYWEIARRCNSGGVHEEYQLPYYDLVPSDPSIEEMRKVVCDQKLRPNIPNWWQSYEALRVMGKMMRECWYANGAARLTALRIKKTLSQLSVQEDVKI
How it was run: as §1

[4] = molecular target: protein kinases of the Z-LYTE panel (Homo sapiens, UniProt P49841)
protein kinases of the Z-LYTE panel (Homo sapiens, UniProt P49841), sequence (P49841 whole entry): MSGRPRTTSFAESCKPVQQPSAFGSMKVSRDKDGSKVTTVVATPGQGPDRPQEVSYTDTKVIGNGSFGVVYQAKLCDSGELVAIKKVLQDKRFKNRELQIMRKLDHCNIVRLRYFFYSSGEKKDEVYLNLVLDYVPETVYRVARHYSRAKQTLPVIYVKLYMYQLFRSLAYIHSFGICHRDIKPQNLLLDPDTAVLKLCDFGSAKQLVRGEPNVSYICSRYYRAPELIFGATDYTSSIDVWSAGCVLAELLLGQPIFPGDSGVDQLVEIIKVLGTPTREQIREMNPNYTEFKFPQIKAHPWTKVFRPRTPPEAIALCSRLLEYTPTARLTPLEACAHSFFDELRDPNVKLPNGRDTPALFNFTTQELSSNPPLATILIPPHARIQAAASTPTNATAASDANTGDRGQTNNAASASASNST
How it was run: as §1

[5] = molecular target: protein kinases of the Z-LYTE panel (Homo sapiens, UniProt P21802)
protein kinases of the Z-LYTE panel (Homo sapiens, UniProt P21802), sequence (P21802 22-821): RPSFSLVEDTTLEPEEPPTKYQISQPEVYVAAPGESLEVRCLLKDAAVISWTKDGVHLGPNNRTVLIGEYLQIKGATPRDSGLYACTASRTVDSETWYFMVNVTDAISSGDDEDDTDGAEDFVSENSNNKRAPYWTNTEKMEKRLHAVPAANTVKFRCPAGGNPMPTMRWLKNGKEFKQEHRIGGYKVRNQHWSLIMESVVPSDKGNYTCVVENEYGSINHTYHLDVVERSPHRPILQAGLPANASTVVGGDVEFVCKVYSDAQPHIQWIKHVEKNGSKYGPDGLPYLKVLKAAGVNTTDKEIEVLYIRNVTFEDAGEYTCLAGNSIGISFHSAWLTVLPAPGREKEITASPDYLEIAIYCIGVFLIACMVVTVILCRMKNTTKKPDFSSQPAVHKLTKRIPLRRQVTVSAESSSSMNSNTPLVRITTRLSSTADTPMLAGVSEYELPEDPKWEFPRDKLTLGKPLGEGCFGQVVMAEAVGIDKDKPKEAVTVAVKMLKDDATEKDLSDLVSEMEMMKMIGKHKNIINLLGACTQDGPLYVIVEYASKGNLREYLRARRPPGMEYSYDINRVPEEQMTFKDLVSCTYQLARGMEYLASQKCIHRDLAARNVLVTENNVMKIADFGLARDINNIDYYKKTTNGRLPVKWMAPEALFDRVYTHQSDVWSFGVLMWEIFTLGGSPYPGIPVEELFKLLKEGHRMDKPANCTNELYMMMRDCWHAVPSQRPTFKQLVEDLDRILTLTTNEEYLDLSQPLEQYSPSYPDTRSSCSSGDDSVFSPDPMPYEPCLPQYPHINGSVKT
How it was run: as §1

[6] = molecular target: protein kinases of the Z-LYTE panel (Homo sapiens, UniProt P00533)
protein kinases of the Z-LYTE panel (Homo sapiens, UniProt P00533), sequence (P00533 25-1210): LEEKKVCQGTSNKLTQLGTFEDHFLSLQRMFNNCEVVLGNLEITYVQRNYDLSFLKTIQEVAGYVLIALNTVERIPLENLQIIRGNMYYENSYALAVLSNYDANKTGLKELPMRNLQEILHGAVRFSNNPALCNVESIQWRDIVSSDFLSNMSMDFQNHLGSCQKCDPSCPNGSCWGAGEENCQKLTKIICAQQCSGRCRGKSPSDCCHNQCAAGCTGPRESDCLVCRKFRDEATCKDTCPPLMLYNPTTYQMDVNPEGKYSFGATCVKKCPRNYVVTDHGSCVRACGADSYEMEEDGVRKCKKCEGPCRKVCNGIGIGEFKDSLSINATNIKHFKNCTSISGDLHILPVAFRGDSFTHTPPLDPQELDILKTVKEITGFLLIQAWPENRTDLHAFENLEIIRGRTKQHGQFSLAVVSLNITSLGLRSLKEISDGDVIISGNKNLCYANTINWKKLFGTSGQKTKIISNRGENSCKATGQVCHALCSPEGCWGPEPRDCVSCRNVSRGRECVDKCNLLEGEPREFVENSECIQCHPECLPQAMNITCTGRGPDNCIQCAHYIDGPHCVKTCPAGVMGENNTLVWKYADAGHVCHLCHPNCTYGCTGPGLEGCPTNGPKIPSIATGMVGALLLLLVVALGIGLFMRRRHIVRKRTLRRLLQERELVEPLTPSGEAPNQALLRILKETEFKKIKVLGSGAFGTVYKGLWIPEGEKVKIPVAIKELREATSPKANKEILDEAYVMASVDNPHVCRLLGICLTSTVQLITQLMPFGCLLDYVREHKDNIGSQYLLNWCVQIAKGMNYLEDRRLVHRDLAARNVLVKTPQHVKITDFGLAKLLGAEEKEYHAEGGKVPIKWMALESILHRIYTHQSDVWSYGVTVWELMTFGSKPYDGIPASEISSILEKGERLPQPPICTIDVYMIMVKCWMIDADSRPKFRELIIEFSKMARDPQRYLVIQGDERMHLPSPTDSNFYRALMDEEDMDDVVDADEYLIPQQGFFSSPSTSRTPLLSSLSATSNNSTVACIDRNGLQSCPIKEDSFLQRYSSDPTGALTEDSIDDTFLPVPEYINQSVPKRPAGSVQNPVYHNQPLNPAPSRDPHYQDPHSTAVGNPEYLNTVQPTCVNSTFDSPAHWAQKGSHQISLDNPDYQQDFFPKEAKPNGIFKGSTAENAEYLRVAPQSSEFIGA
How it was run: as §1

[7] = molecular target: protein kinases of the Z-LYTE panel (Homo sapiens, UniProt P23458)
protein kinases of the Z-LYTE panel (Homo sapiens, UniProt P23458), sequence (P23458 whole entry): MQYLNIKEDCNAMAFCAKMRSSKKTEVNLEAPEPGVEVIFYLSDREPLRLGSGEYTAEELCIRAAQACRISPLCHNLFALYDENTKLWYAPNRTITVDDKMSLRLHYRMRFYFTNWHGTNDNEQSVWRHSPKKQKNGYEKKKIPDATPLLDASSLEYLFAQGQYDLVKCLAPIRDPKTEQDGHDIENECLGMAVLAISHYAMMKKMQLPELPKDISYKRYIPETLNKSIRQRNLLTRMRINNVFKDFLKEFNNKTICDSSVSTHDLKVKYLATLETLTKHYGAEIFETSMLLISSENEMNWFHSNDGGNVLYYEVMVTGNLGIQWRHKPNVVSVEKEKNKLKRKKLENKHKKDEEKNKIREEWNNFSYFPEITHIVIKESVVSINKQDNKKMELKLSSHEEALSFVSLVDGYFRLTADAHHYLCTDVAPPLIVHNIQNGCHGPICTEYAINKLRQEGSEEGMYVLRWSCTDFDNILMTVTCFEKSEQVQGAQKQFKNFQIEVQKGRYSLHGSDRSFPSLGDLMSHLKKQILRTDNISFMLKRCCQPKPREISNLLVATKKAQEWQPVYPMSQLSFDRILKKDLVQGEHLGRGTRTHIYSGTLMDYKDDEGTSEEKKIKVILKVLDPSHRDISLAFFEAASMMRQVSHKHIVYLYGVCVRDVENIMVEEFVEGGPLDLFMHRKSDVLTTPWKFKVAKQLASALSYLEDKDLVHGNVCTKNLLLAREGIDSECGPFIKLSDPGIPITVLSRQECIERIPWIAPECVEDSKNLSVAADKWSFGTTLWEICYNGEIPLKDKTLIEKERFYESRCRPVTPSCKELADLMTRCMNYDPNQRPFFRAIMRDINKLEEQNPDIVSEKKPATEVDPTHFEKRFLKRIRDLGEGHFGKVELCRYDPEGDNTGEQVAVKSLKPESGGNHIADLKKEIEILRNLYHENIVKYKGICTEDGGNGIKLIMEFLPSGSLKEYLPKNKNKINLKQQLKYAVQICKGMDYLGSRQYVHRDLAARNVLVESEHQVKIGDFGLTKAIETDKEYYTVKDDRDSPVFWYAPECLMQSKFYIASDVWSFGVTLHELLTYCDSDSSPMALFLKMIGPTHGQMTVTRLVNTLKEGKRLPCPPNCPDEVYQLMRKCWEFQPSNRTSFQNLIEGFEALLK
How it was run: as §1

[8] = molecular target: T2, protein kinases of the Z-LYTE panel (Homo sapiens, UniProt Q9NWZ3)
T2 sequence (Q9NWZ3 1-460): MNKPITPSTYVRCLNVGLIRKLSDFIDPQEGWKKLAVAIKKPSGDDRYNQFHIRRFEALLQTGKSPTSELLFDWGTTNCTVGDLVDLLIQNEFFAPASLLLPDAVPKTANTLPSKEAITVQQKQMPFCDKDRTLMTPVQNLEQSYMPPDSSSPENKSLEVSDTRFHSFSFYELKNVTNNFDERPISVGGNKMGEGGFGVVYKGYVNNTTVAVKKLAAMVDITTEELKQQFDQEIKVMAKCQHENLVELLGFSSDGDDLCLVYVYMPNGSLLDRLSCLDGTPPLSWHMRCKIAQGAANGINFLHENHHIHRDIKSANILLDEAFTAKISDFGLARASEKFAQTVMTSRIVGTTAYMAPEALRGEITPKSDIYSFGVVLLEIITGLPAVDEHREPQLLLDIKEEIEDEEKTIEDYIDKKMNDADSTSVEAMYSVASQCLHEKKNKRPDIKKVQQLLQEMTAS
How it was run: as §1

[9] = molecular target: protein kinases of the Z-LYTE panel (Homo sapiens, UniProt P19784)
protein kinases of the Z-LYTE panel (Homo sapiens, UniProt P19784), sequence (P19784 whole entry): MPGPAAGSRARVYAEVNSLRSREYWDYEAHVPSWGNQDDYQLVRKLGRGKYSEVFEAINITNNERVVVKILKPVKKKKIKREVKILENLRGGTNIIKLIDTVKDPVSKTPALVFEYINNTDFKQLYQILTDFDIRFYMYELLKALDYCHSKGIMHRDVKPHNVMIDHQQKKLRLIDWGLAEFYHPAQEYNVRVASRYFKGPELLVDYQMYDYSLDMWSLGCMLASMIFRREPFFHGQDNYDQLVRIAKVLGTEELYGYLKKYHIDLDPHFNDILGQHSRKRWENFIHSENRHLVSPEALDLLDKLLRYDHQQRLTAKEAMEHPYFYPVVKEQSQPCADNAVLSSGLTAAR
How it was run: as §1

[10] = molecular target: protein kinases of the Z-LYTE panel (Homo sapiens, UniProt P07949)
How it was run: as §1

[11] = molecular target: protein kinases of the Z-LYTE panel (Homo sapiens, UniProt P31749)
protein kinases of the Z-LYTE panel (Homo sapiens, UniProt P31749), sequence (P31749 whole entry): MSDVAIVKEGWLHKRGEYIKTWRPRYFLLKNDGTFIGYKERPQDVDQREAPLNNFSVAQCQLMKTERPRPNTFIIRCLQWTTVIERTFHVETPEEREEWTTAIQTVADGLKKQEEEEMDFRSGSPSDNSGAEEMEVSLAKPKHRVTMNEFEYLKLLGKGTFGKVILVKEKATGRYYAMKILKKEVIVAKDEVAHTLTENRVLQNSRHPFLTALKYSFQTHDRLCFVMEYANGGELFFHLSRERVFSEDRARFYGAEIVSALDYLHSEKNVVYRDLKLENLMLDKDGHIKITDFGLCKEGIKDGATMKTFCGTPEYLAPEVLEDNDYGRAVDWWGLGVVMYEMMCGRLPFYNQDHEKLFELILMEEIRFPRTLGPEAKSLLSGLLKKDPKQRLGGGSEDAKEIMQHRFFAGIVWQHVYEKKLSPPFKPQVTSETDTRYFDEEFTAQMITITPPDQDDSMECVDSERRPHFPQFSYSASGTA
How it was run: as §1

CCN1CCN(c2ccc(Nc3cc(Nc4cccc5c4N(C(C)=O)CC5)ccn3)cc2)CC1 [Compound 1938]
inhibition at 1 µM ([1]; read-out: % Inhibition Point 1): 5.46%
inhibition at 1 µM ([1]; read-out: % Inhibition Point 2): 3.74%
inhibition at 1 µM ([1]; read-out: % Inhibition mean): 4.6%
inhibition at 1 µM ([2]; read-out: % Inhibition Point 1): 9%
inhibition at 1 µM ([2]; read-out: % Inhibition Point 2): 8%
inhibition at 1 µM ([2]; read-out: % Inhibition mean): 9%
inhibition at 1 µM ([3]; read-out: % Inhibition Point 1): -27%
inhibition at 1 µM ([3]; read-out: % Inhibition Point 2): -3%
inhibition at 1 µM ([3]; read-out: % Inhibition mean): -15%
inhibition at 1 µM ([4]; read-out: % Inhibition Point 1): 5.38%
inhibition at 1 µM ([4]; read-out: % Inhibition Point 2): 5%
inhibition at 1 µM ([4]; read-out: % Inhibition mean): 5%
inhibition at 1 µM ([5]; read-out: % Inhibition Point 1): 13%
inhibition at 1 µM ([5]; read-out: % Inhibition Point 2): 16%
inhibition at 1 µM ([5]; read-out: % Inhibition mean): 14%
inhibition at 1 µM ([6]; read-out: % Inhibition Point 1): 18%
inhibition at 1 µM ([6]; read-out: % Inhibition Point 2): 17%
inhibition at 1 µM ([6]; read-out: % Inhibition mean): 18%
inhibition at 1 µM ([7]; read-out: % Inhibition Point 1): -2%
inhibition at 1 µM ([7]; read-out: % Inhibition Point 2): -2%
inhibition at 1 µM ([7]; read-out: % Inhibition mean): -2%
inhibition at 1 µM ([8]; read-out: % Inhibition Point 1): -0.0182%
inhibition at 1 µM ([8]; read-out: % Inhibition Point 2): -2.21%
inhibition at 1 µM ([8]; read-out: % Inhibition mean): -1.11%
inhibition at 1 µM ([9]; read-out: % Inhibition Point 1): 0.87%
inhibition at 1 µM ([9]; read-out: % Inhibition Point 2): 2.67%
inhibition at 1 µM ([9]; read-out: % Inhibition mean): 1.77%
inhibition at 1 µM ([10]; read-out: % Inhibition Point 1): 15%
inhibition at 1 µM ([10]; read-out: % Inhibition Point 2): 15%
inhibition at 1 µM ([10]; read-out: % Inhibition mean): 15%
inhibition at 1 µM ([11]; read-out: % Inhibition Point 1): 4.32%
inhibition at 1 µM ([11]; read-out: % Inhibition Point 2): 3.3%
inhibition at 1 µM ([11]; read-out: % Inhibition mean): 4%
